The text below walks through data of patent US7390923B2, “Propionamide derivatives useful as androgen receptor modulators” (Orion Corporation, priority 2003, dated 2008).

For this assay, the target named is T1, androgen receptor (AR) (Rattus norvegicus, UniProt P15207).
T1 construct: Ventral prostates were obtained form rats castrated 24 h prior to sacrifice; from tissue; host or cells: rat ventral prostate cytosol (castrated rats, charcoal-treated)
T1 sequence (P15207 1-902): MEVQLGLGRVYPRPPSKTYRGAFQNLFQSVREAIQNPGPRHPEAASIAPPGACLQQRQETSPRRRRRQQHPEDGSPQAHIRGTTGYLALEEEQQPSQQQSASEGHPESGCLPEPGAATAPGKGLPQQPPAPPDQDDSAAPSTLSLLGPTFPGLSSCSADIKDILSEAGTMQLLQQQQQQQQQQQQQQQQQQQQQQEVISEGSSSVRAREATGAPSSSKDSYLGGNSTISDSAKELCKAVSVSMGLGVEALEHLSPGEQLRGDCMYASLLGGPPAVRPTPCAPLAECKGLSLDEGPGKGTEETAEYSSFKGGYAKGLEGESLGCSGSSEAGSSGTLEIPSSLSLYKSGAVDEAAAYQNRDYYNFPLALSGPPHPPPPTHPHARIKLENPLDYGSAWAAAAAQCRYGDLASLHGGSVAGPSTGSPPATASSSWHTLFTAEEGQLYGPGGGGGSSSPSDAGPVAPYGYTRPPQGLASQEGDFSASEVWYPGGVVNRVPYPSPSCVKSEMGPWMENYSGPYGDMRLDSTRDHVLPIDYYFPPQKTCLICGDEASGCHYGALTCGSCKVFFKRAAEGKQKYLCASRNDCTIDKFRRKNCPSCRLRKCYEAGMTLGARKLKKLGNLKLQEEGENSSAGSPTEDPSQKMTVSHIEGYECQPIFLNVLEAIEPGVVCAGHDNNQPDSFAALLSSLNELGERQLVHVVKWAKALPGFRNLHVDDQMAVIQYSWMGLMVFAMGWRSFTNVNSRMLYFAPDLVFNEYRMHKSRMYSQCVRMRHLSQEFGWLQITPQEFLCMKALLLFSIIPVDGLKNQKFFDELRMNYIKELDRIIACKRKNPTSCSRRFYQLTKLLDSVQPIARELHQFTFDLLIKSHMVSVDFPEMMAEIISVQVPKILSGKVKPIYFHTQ
The experiment in a line: AR binding assay, competition with [3H]-mibolerone binding in rat ventral prostate cytosol. As to conditions: 1 nM [3H]-mibolerone, overnight at 0° C.; for inhibition at 0.2 µM: test compound 0.2 μM; for inhibition at 2 µM: test compound 2.0 μM. On the procedure: Ventral prostates were obtained form rats castrated 24 h prior to sacrifice. Fresh prostate was minced and washed with Buffer A (Schilling and Liao, Prostate, 5:581-588, 1984). The minces were then homogenized in 3× volume of Buffer A containing protease inhibitors (Complete, Mini, EDTA-free Roche). The homogenate was centrifuged at 30000 g for 30 min. The resultant supernatants were treated with 1×volume of dextran-coated charcoal solution (12.5 g activated charcoal, 12.5 g dextran per liter of buffer A) to remove endogenous steroids. The samples were incubated for 5 min and centrifuged at 16000 g for 10 min. Aliquots of the charcoal-treated cytosol were taken for androgen receptor assays. All procedures were carried out at 0-4° C.
Cytosol androgen receptor concentration was determined as described (Isomaa et al., Endocrinology, 111: 833-843, 1982) with minor modifications. Cytosol preparations were prepared as described above, and bound and free steroids were separated by treatment with an equal volume of dextran-charcoal suspension for 5 min at 4° C. followed by centrifugation at 16000 g for 10 min. Bound radioactivity was determined by counting supernatant fractions in 1 ml of OptiPhase HiSafe3 or OptiPhase Supermix (PerkinElmer).
Cytosol preparations were labelled with 1 nM [^3H]-mibolerone overnight at 0° C. (total). To determine AR binding activity of the compounds of the present invention (test compounds), the ability of test compounds to compete with [^3H]7α,17α-dimethyl-17β-hydroxy-4-estren-3-one ([^3H]-mibolerone) binding was studied. 1 nM [^3H]-mibolerone and test compounds in two concentrations (0.2 and 2 uM) were incubated overnight at 0° C. To determine non-specific binding, parallel incubations were carried out using 1 nM concentration [^3H]-mibolerone with 500-fold molar excess of unlabelled testosterone. Two to four replicates were used for each sample. After incubation, bound and free steroids were separated as described above and bound radioactivity was determined. The ability of the test compounds to bind AR is reported as reduction in bound radioactivity obtained with 1 nM [^3H]-mibolerone. The results (% inhibition) were calculated as: % inhibition=100−(100×(averagetest compound/averagetotal)).

`CC(=O)Nc1ccc(OCC(C)(O)C(=O)Nc2ccc([N+](=O)[O-])c(C)c2)cc1` (stereo not shown) [Example 1, 3-(4-Acetylaminophenoxy)-2-hydroxy-2-methyl-N-(3-methyl-4-nitrophenyl)propionamide]: the inhibition (commonly the drop in the measured response relative to a control, in per cent) at 0.2 µM came out at 91% and the inhibition at 2 µM turned out to be 101%.
The matching figures for `CC(=O)Nc1ccc(OCC(C)(O)C(=O)Nc2ccc([N+](=O)[O-])c(C)c2)cc1F` (stereo not shown) [Example 2, 3-(4-Acetylamino-3-fluorophenoxy)-2-hydroxy-2-methyl-N-(3-methyl-4-nitrophenyl)propionamide]: 93% and 100%.
Regarding `CC(=O)Nc1ccc(OC[C@](C)(O)C(=O)Nc2ccc([N+](=O)[O-])c(C)c2)cc1F` [Example 4, (2S)-3-(4-Acetylamino-3-fluorophenoxy)-2-hydroxy-2-methyl-N-(3-methyl-4-nitrophenyl)propionamide], the inhibition at 0.2 µM worked out at 90% and the inhibition at 2 µM came out at 88%.
On the same counts, the results for `Cc1cc(NC(=O)C(C)(O)COc2ccc(C(N)=O)cc2)ccc1[N+](=O)[O-]` (stereo not shown) [Example 5, 4-[2-Hydroxy-2-(3-methyl-4-nitrophenylcarbamoyl)propoxy]benzamide] are 25% and 74%.
On the same counts, the results for `Cc1cc(NC(=O)C(C)(O)COc2ccc(Cl)c(Cl)c2)ccc1[N+](=O)[O-]` (stereo not shown) [Example 6, 3-(3,4-Dichlorophenoxy)-2-hydroxy-2-methyl-N-(3-methyl-4-nitrophenyl)propionamide] are 68% and 95%.
The matching figures for `CCOC(=O)c1ccc(OCC(C)(O)C(=O)Nc2ccc([N+](=O)[O-])c(C)c2)cc1` (stereo not shown) [Example 7, 4-[2-Hydroxy-2-(3-methyl-4-nitrophenylcarbamoyl)propoxy]benzoic acid ethyl ester]: 74% and 98%.
For the compound `Cc1cc(NC(=O)C(C)(O)COc2ccc(F)c(Cl)c2)ccc1[N+](=O)[O-]` (stereo not shown) [Example 8, 3-(3-Chloro-4-fluorophenoxy)-2-hydroxy-2-methyl-N-(3-methyl-4-nitrophenyl)propionamide], the inhibition at 0.2 µM was found to be 93% and the inhibition at 2 µM amounted to 109%.
The matching figures for `Cc1cc(NC(=O)C(C)(O)COc2ccc(OC(F)(F)F)cc2)ccc1[N+](=O)[O-]` (stereo not shown) [Example 9, 2-Hydroxy-2-methyl-N-(3-methyl-4-nitrophenyl)-3-(4-trifluoromethoxyphenoxy)propionamide]: 41% and 102%.
The matching figures for `Cc1cc(NC(=O)C(C)(O)COc2cccc(Cl)c2Cl)ccc1[N+](=O)[O-]` (stereo not shown) [Example 10, 3-(2,3-Dichlorophenoxy)-2-hydroxy-2-methyl-N-(3-methyl-4-nitrophenyl)propionamide]: 5% and 83%.
In the case of `Cc1cc(NC(=O)C(C)(O)COc2ccc(F)cc2)ccc1[N+](=O)[O-]` (stereo not shown) [Example 11, 3-(4-Fluorophenoxy)-2-hydroxy-2-methyl-N-(3-methyl-4-nitrophenyl)propionamide], the inhibition at 0.2 µM is 98% and the inhibition at 2 µM stood at 105%.
Consider `Cc1ccc(OCC(C)(O)C(=O)Nc2ccc([N+](=O)[O-])c(C)c2)cc1` (stereo not shown) [Example 12, 2-Hydroxy-2-methyl-N-(3-methyl-4-nitrophenyl)-3-p-tolyloxypropionamide], for which the inhibition at 0.2 µM stood at 77% and the inhibition at 2 µM was 101%.
On the same counts, the results for `Cc1cc(NC(=O)C(C)(O)COc2ccc(NC(=O)C(F)(F)F)cc2)ccc1[N+](=O)[O-]` (stereo not shown) [Example 13, 2-Hydroxy-2-methyl-N-(3-methyl-4-nitrophenyl)-3-[4-(2,2,2-trifluoroacetylamino)phenoxy]propionamide] are 77% and 90%.
On the same counts, the results for `Cc1cc(NC(=O)C(C)(O)COc2ccccc2)ccc1[N+](=O)[O-]` (stereo not shown) [Example 14, 2-Hydroxy-2-methyl-N-(3-methyl-4-nitrophenyl)-3-phenoxypropionamide] are 75% and 95%.
On the same counts, the results for `Cc1cc(NC(=O)C(C)(O)COc2ccc(C(F)(F)F)cc2)ccc1[N+](=O)[O-]` (stereo not shown) [Example 15, 2-Hydroxy-2-methyl-N-(3-methyl-4-nitrophenyl)-3-(4-trifluoromethylphenoxy)propionamide] are 46% and 77%.
As to `CC(=O)c1ccc(OCC(C)(O)C(=O)Nc2ccc([N+](=O)[O-])c(C)c2)cc1` (stereo not shown) [Example 16, 3-(4-Acetylphenoxy)-2-hydroxy-2-methyl-N-(3-methyl-4-nitrophenyl)propionamide], the inhibition at 0.2 µM was 50% and the inhibition at 2 µM stood at 91%.
The matching figures for `Cc1cc(NC(=O)C(C)(O)COc2ccc(C#N)cc2)ccc1[N+](=O)[O-]` (stereo not shown) [Example 17, 3-(4-Cyanophenoxy)-2-hydroxy-2-methyl-N-(3-methyl-4-nitrophenyl)propionamide]: 95% and 98%.
As to `Cc1cc(NC(=O)C(C)(O)COc2cccc(F)c2)ccc1[N+](=O)[O-]` (stereo not shown) [Example 18, 3-(3-Fluorophenoxy)-2-hydroxy-2-methyl-N-(3-methyl-4-nitrophenyl)propionamide], the inhibition at 0.2 µM was found to be 90% and the inhibition at 2 µM was 99%.
In the case of `Cc1cc(NC(=O)C(C)(O)COc2ccccc2F)ccc1[N+](=O)[O-]` (stereo not shown) [Example 19, 3-(2-Fluorophenoxy)-2-hydroxy-2-methyl-N-(3-methyl-4-nitrophenyl)propionamide], the inhibition at 0.2 µM came to 83% and the inhibition at 2 µM is 99%.
On the same counts, the results for `Cc1cc(NC(=O)C(C)(O)COc2ccc(CCO)cc2)ccc1[N+](=O)[O-]` (stereo not shown) [Example 20, 2-Hydroxy-3-[4-(2-hydroxyethyl)phenoxy]-2-methyl-N-(3-methyl-4-nitrophenyl)propionamide] are 13% and 83%.
On the same counts, the results for `Cc1cc(NC(=O)C(C)(O)COc2c(Cl)cccc2Cl)ccc1[N+](=O)[O-]` (stereo not shown) [Example 21, 3-(2,6-Dichlorophenoxy)-2-hydroxy-2-methyl-N-(3-methyl-4-nitrophenyl)propionamide] are 26% and 91%.
The matching figures for `Cc1cc(NC(=O)C(C)(O)COc2ccc(Cl)cc2)ccc1[N+](=O)[O-]` (stereo not shown) [Example 23, 3-(4-Chlorophenoxy)-2-hydroxy-2-methyl-N-(3-methyl-4-nitrophenyl)propionamide]: 88% and 92%.
On to `Cc1cc(NC(=O)C(C)(O)COc2ccc(Br)cc2)ccc1[N+](=O)[O-]` (stereo not shown) [Example 24, 3-(4-Bromophenoxy)-2-hydroxy-2-methyl-N-(3-methyl-4-nitrophenyl)propionamide], for which the inhibition at 0.2 µM came to 75% and the inhibition at 2 µM was 93%.
On the same counts, the results for `COc1ccc(OCC(C)(O)C(=O)Nc2ccc([N+](=O)[O-])c(C)c2)cc1` (stereo not shown) [Example 25, 2-Hydroxy-3-(4-methoxyphenoxy)-2-methyl-N-(3-methyl-4-nitrophenyl)propionamide] are 96% and 98%.
